Numbered stars: 1 amine (or outer) side, 2 acyl side, 3 side chain; on linkers, the order of the positions; unused ones are H or OH. Bridge positions count the residues as written; N and C are the ends. Square brackets hold non-standard residues; d marks the D form. Peptide text beside a SMILES is read from it. I, II: the chains in the order shown. ξ: configuration not given here. Phe(4-tBu) = CC(C)(C)c1ccc(C[C@H](N)C(=O)O)cc1; Diglycolyl = O=C(COCC(=O)[*:2])[*:1]; NMeR = CN[C@@H](CCCNC(=N)N)C(=O)O; β3hE = N[C@@H](CCC(=O)O)CC(=O)O; Thr(3ξ) = CC(O)[C@H](N)C(=O)O; X1 = O=C(c1ccccc1C[*:2])[*:1]; Pen = CC(C)(S)[C@H](N)C(=O)O
Key:
[1] = test system: subjects with moderate to severe active ulcerative colitis; assay: Phase 2 randomized, double-blind, placebo-controlled study of oral Compound (I), 12-week induction; type: in vivo, human; settings: FIG. 3; for proportion of subjects achieving clinical remission at Week 12, total: 150 mg BID + 450 mg BID
From the text: As used herein, the term “clinical remission rate” refers to when the symptoms of IBD have lessened to the point that they're mostly absent or gone, including endoscopic remission, wherein inflammation is seen during a colonoscopy or a sigmoidoscopy and determined by a healthcare provider that the lining of the digestive tract is improved or healed. […] As used herein, the term “compound of formula (I)” or Compound (I) refers to a peptide compound having the following structure:
The study also evaluates the pharmacokinetic (PK) and pharmacodynamics (PD) and biomarker responses to treatment with oral Compound (I).
This is a two-part study: Part 1 is a randomized, double-blind, placebo-controlled, parallel design 12-week induction treatment period in patients with moderate to severe active UC; and Part 2 is an extended treatment period of 40 weeks that will include subjects who successfully complete Part 1. Subjects who complete the Week 12 visit for Part 1 will be eligible to enter Part 2.
Part 1 is a 12-week randomized, double-blind, placebo-controlled, parallel design study in adult subjects with moderate to severe active UC. Eligible subjects are randomized 1:1:1 to Compound (I) 450 mg twice daily (BID), Compound (I) 150 mg BID, or placebo BID. Subjects must have a biopsy-confirmed diagnosis of UC. […] Subjects with a history of prior vedolizumab treatment will be excluded. Randomization will be stratified by prior failure to a TNFα antagonist or an IL-12/23 antagonist.
Primary outcome measures include the proportion of subjects achieving clinical remission at Week 12 compared to placebo. Clinical remission is determined using the Adapted Mayo score (sum of 3 subscores from the Mayo score): • Stool frequency subscore (SFS) • Rectal bleeding subscore (RBS) • Endoscopic subscore (ESS)
Efficacy is assessed, at least in part, based on the Mayo score. The Mayo score includes 4 components: Stool Frequency Subscore (SFS), Rectal Bleeding Subscore (RBS), Endoscopic Subscore (ESS) and Physician's Global Assessment (PGA). Each of the individual scores range from 0 to 3 with higher number indicating higher severity): • Complete Mayo Score is a sum of all 4 subscores (SFS, RBS, ESS and PGA) and ranges from 0 to 12 points. • Adapted Mayo Score is a sum of 3 subscores (SFS, RBS and ESS). The Adapted Mayo score ranges from 0 to 9 points. • Partial Mayo Score is a sum of 3 subscores (SFS, RBS and PGA) ranging from 0 to 9 points.
Blood samples for measurement of Compound (I) plasma concentrations will be collected at 0 (within 1 hour pre-dose) and at 1, 2, and 4 hours post-dose on Week 0 (Study Day 1) and Week 12. A single pre-dose sample should be collected within 1 hour prior to the first dose of the day on each clinic visit.
Blood (4 mL) samples for PK analysis will be obtained in K2EDTA tubes prior to dosing and at the time points delineated in the study schedule. All samples (except those collected post-dose on Day 0 and Day 84) should be obtained prior to the daily dosing of study drug (i.e. Ctrough).

[2] = DTT (Dithiothreitol) assay, stability to gastric environment under reduced conditions; type: physicochemical
Method: The compound of formula (I) or a pharmaceutically acceptable salt thereof comprises a half-life from approximately 1 minute to approximately 180 minutes.

[3] = trough concentration quartile Q1 at week 12
[4] = trough concentration quartile Q2 at week 12
[5] = trough concentration quartile Q3 at week 12
[6] = trough concentration quartile Q4 at week 12

- half-life [2]: > 2 h
Compound: CC(C)C[C@@H]1NC(=O)[C@H](C(C)O)NC(=O)[C@H](CC(=O)O)NC(=O)[C@H](CO)NC(=O)[C@H](CCCNC(=N)N)N(C)C(=O)c2ccccc2CSC(C)(C)[C@@H](C(=O)N[C@@H](Cc2ccc(C(C)(C)C)cc2)C(=O)N[C@@H](CCC(=O)O)CC(=O)N[C@H](CCCCNC(=O)COCC(=O)NCCCC[C@@H](NC(=O)C[C@H](CCC(=O)O)NC(=O)[C@H](Cc2ccc(C(C)(C)C)cc2)NC(=O)[C@H]2NC(=O)[C@H](CC(C)C)NC(=O)[C@H](C(C)O)NC(=O)[C@H](CC(=O)O)NC(=O)[C@H](CO)NC(=O)[C@H](CCCNC(=N)N)N(C)C(=O)c3ccccc3CSC2(C)C)C(=O)O)C(=O)O)NC1=O (stereo partly drawn) [compound of formula (I)] (I: [NMeR]SD[Thr(3ξ)]L[Pen][Phe(4-tBu)][β3hE][dK]-OH / II: [NMeR]SD[Thr(3ξ)]L[Pen][Phe(4-tBu)][β3hE][dK]-OH; linker I:9-II:9 via Diglycolyl; linker I:N-I:6, II:N-II:6 via X1)
- proportion of subjects achieving clinical remission at Week 12, total [1, 3]: 33.3%
- proportion of subjects achieving clinical remission at Week 12, part being 450 mg BID dose [1, 3]: 26.7%
- proportion of subjects achieving clinical remission at Week 12, total [1, 4]: 40%
- proportion of subjects achieving clinical remission at Week 12, part being 450 mg BID dose [1, 4]: 26.7%
- proportion of subjects achieving clinical remission at Week 12, total [1, 5]: 13.3%
- proportion of subjects achieving clinical remission at Week 12, part being 450 mg BID dose [1, 5]: 6.7%
- proportion of subjects achieving clinical remission at Week 12, total [1, 6]: 18.8%
- proportion of subjects achieving clinical remission at Week 12, part being 450 mg BID dose [1, 6]: 6.3%
